In article PMC6717735, “Therapeutic Effect of pHLIP-mediated CEACAM6 Gene Silencing in Lung Adenocarcinoma” (Scientific Reports, 2019):

What was measured:
A549 tumours [1] = assay: A549 xenograft tumour growth; assay type: in vivo, BALB/c nude mice; details: compared with vehicle-treated mice; for reduction in tumour growth: n = 5
Protocol: We first assessed the knockdown efficacy of delivered […]6 in vivo. For in vivo analysis, BALB/c nude mice were subcutaneously injected with 1.2 × 10^7 A549 cells. Two weeks after tumour initiation, […]6 was injected into the mice via the tail vein with saline used as a negative control. To determine the optimal amount of […]6 for injection, two groups of mice (n = 5 mice/group) were injected with different doses (2 mg/kg and 4 mg/kg) twice per week for 3 weeks. Because cisplatin is the backbone of lung cancer treatment, cisplatin-treated mice served as the positive control. […] After 3 weeks of treatment, all mice were sacrificed. Next, we assessed the antitumour effects of concurrent chemotherapy and CEACAM6 targeting. […] According to the in vivo results, a dose of 2 mg/kg […]6 was selected for combination treatment. […] Tumour volume was measured every 2-3 days. […] None of the mice included in the therapeutic experiments experienced overt body weight loss or organ damage over the treatment period (Supplementary Fig. 5a,b). All animal work was performed in accordance with a protocol approved by the Institutional Animal Care and Use Committee of the Korea Research Institute of Bioscience and Biotechnology. A549 cells were subcutaneously injected into the right flanks of 5-week-old BALB/c athymic nude mice (n = 5 mice/group; 1.2 × 10^7 cells/mouse). Tumour growth was determined by measuring the length (L), width (W), and height (H) with callipers and using the formula V = (L × W × H) × 0.5.

A549 tumours [2] = assay: Ki-67 immunostaining of xenograft tumours (proliferation); assay type: in vivo, BALB/c nude mice; details: n = 5 tumours/group
Protocol: Mice were killed by carbon dioxide asphyxiation. Staining was performed in formalin-fixed, paraffin-embedded tumour sections (4-μm thickness). Fully automated immunostaining was achieved using a BenchMark XT autostainer (Ventana Medical Systems Inc., Tucson, AZ, USA). The following antibodies were used: monoclonal mouse anti-human CEACAM6 (9A6, 1:4,000; Santa Cruz Biotechnology Inc.), anti-CC3 (1:100, BioCare Medical, Pacheco, CA, USA), and anti-Ki-67 (1:100, VP-K452; Vector Laboratory, Burlington, Canada). The number of positive cells per tumour area was quantified.

Compound: N.N.[Cl][Pt][Cl] [cisplatin]
- reduction in tumour growth (A549 tumours [1]; 2 mg/kg intraperitoneally 3 times/week for 3 weeks): 46.7%
- reduction in tumour growth (A549 tumours [1]; 2 mg/kg intraperitoneally twice/week for 3 weeks): 35.0%
- reduction in tumour volume (A549 tumours [1]; combination study: pHLIP-siCEACAM6 2 mg/kg via tail vein, cisplatin intraperitoneally, twice per week for 3 weeks, n = 5 mice/group): 29.9%
- cell proliferation in tumours (Ki-67 staining) (A549 tumours [2]; combination study, after 3 weeks of systemic therapy): 18.4%
- proliferation level (Ki-67 staining) (A549 tumours [2]; single-agent study, tumours harvested after 3 weeks): 11.2%
